Columns and labels:
[1] = test system: Tyrosine-protein kinase ABL1 (Homo sapiens), P00519 [E255K]; experiment: Inhibition of human phosphorylated ABL1 E255K mutant (S229 to K512 residues) expressed in mammalian expression system at 1 uM by Kinomescan method relative to control
[2] = target: Calcium/calmodulin-dependent protein kinase type II subunit delta (Homo sapiens) (UniProt Q13557); experiment: Inhibition of wild-type human partial length CAMK2D (M1 to E329 residues) expressed in bacterial expression system at 1 uM by Kinomescan method relative to control
Calcium/calmodulin-dependent protein kinase type II subunit delta (Homo sapiens), sequence (Q13557 whole entry, the tested form may be a part, canonical isoform): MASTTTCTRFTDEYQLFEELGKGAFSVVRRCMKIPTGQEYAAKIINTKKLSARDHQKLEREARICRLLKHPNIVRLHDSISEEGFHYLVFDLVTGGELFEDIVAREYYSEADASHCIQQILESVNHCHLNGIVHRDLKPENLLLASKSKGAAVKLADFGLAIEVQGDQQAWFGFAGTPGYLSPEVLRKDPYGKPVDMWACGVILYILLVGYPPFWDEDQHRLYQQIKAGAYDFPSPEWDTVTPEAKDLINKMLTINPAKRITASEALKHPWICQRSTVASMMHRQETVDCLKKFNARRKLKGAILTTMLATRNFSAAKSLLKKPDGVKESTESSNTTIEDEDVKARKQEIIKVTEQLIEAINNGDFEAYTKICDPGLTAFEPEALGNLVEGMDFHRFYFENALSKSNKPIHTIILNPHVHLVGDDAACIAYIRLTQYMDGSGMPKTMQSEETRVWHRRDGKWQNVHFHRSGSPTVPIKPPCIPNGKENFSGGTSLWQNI

[3] = target: Casein kinase I isoform gamma-2 (Homo sapiens) (UniProt P78368); experiment: Inhibition of wild-type human full length CSNK1G2 (M1 to K415 residues) expressed in bacterial expression system at 1 uM by Kinomescan method relative to control
[4] = target: Serine/threonine-protein kinase 17A (Homo sapiens) (UniProt Q9UEE5); experiment: Inhibition of wild-type human partial length DRAK1 (R32 to E363 residues) expressed in bacterial expression system at 1 uM by Kinomescan method relative to control
[5] = target: Dual specificity tyrosine-phosphorylation-regulated kinase 2 (Homo sapiens) (UniProt Q92630); experiment: Inhibition of wild-type human full length DYRK2 (M1 to S528 residues) expressed in mammalian expression system at 1 uM by Kinomescan method relative to control
Dual specificity tyrosine-phosphorylation-regulated kinase 2 (Homo sapiens), sequence (Q92630 whole entry, the tested form may be a part): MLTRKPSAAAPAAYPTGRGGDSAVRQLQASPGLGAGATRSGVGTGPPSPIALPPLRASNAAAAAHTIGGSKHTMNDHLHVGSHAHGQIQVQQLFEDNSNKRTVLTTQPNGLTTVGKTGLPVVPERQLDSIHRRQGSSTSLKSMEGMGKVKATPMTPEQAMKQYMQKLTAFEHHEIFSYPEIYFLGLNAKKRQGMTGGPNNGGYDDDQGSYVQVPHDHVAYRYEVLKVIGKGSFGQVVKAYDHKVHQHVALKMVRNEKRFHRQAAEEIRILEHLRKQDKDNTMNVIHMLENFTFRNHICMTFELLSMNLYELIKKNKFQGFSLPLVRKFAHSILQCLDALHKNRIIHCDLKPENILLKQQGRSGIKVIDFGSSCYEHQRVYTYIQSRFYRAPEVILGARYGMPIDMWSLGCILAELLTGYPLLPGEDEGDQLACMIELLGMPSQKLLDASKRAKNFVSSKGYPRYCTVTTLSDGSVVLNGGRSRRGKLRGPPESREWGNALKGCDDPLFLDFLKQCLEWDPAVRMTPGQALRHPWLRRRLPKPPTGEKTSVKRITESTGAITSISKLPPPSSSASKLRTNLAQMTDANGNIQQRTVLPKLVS

[6] = test system: Epidermal growth factor receptor (Homo sapiens), P00533 [L858R,T790M]; experiment: Inhibition of human partial length EGFR L858R/T790M double mutant (R669 to V1011 residues) expressed in mammalian expression system at 1 uM by Kinomescan method relative to control
[7] = target: Ephrin type-A receptor 8 (Homo sapiens) (UniProt P29322); experiment: Inhibition of wild-type human partial length EPHA8 (Q608 to C920 residues) expressed in bacterial expression system at 1 uM by Kinomescan method relative to control
[8] = test system: Hepatocyte growth factor receptor (Homo sapiens), P08581 [M1250T]; experiment: Inhibition of human partial length MET M1250T mutant (D1010 to S1367 residues) expressed in bacterial expression system at 1 uM by Kinomescan method relative to control
Hepatocyte growth factor receptor (Homo sapiens), P08581 [M1250T], sequence (P08581 whole entry M1250T, the tested form may be a part): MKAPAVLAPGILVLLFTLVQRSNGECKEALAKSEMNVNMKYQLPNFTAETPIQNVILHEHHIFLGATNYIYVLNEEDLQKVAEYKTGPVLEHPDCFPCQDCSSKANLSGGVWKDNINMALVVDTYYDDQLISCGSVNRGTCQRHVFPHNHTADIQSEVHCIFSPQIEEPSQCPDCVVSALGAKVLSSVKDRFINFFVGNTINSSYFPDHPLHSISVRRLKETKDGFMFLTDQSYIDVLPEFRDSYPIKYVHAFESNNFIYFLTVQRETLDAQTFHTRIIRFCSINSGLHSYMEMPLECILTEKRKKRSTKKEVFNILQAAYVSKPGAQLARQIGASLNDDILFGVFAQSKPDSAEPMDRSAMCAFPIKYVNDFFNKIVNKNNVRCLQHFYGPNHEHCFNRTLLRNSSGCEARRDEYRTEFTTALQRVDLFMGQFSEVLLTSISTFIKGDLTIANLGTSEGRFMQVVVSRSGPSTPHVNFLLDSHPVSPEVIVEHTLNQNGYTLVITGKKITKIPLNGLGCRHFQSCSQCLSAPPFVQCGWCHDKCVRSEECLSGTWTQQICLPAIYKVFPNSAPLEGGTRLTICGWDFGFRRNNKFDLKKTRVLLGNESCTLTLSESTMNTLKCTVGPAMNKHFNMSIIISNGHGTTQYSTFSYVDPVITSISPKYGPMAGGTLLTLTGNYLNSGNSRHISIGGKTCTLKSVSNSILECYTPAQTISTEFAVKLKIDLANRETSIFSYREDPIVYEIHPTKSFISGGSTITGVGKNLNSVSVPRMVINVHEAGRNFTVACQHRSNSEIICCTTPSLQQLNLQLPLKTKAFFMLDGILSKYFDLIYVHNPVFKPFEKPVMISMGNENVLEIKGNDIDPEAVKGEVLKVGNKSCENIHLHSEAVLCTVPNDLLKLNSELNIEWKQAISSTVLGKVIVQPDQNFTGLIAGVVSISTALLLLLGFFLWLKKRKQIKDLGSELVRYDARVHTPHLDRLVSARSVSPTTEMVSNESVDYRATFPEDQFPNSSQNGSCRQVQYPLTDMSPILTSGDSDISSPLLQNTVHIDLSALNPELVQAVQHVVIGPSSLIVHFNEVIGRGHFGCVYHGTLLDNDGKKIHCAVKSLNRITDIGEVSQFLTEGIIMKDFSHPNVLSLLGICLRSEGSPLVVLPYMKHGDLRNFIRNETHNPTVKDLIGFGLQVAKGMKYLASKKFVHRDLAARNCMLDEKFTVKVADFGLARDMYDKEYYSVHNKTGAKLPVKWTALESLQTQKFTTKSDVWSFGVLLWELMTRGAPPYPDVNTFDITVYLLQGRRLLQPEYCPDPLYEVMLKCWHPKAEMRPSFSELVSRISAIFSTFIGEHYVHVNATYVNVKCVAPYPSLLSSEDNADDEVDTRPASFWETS

[9] = target: Serine/threonine-protein kinase OSR1 (Homo sapiens) (UniProt O95747); experiment: Inhibition of wild-type human full length OSR1 (M1 to S527 residues) expressed in mammalian expression system at 1 uM by Kinomescan method relative to control
Serine/threonine-protein kinase OSR1 (Homo sapiens), sequence (O95747 2-527 limits assumed): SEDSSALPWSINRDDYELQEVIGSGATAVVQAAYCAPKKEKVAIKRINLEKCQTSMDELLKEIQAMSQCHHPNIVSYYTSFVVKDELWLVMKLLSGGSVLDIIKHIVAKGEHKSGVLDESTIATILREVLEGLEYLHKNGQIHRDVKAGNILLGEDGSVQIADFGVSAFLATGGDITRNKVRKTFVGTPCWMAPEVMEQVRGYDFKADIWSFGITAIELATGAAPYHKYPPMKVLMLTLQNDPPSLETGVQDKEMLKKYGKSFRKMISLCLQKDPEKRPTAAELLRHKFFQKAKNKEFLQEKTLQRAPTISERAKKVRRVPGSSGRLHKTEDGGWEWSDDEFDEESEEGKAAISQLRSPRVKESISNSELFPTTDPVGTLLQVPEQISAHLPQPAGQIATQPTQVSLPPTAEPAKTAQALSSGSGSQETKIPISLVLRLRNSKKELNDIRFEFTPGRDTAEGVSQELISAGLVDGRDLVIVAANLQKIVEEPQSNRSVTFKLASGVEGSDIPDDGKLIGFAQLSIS

[10] = target: Serine/threonine-protein kinase PAK 5 (Homo sapiens) (UniProt Q9P286); experiment: Inhibition of wild-type human partial length PAK7 (Y400 to H719 residues) expressed in bacterial expression system at 1 uM by Kinomescan method relative to control
Serine/threonine-protein kinase PAK 5 (Homo sapiens), sequence (Q9P286 whole entry, looked up, the tested form may be a part): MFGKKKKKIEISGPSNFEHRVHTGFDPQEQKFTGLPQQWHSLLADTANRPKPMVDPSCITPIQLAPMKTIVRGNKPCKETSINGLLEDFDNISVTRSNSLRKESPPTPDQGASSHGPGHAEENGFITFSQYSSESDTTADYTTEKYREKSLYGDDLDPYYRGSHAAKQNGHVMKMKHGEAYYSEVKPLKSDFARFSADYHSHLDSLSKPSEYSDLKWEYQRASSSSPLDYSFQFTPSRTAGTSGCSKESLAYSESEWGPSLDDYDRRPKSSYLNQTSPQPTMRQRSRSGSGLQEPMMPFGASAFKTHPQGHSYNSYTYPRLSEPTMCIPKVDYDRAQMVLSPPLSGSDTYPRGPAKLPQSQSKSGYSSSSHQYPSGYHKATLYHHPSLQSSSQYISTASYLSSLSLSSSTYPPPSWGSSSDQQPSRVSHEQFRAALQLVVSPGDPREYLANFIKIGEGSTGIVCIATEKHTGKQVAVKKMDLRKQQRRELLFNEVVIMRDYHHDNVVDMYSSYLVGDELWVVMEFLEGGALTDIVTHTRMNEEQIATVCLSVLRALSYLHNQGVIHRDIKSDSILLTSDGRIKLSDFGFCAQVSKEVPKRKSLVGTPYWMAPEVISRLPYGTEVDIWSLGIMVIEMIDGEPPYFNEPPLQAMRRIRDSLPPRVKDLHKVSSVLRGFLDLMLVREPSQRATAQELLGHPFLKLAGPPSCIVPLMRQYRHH

[11] = target: Serine/threonine-protein kinase RIO2 (Homo sapiens) (UniProt Q9BVS4); experiment: Inhibition of wild-type human partial length RIOK2 (M1 to D313 residues) expressed in mammalian expression system at 1 uM by Kinomescan method relative to control
[12] = target: Ribosomal protein S6 kinase alpha-3 (Homo sapiens) (UniProt P51812); experiment: Inhibition of wild-type human partial length C-terminal RSK2 kinase domain 2 (V402 to S715 residues) expressed in mammalian expression system at 1 uM by Kinomescan method relative to control
[13] = target: Activated CDC42 kinase 1 (Homo sapiens) (UniProt Q07912); experiment: Inhibition of wild-type human partial length TNK2 (S159 to D474 residues) expressed in bacterial expression system at 1 uM by Kinomescan method relative to control
[14] = test system: Tyrosine-protein kinase ABL1 (Homo sapiens), P00519 [F317L]; experiment: Inhibition of human non-phosphorylated ABL1 F317L mutant (S229 to K512 residues) expressed in mammalian expression system at 10 uM by Kinomescan method relative to control
[15] = test system: Tyrosine-protein kinase ABL1 (Homo sapiens), P00519 [M351T]; experiment: Inhibition of human phosphorylated ABL1 M351T mutant (S229 to K512 residues) expressed in mammalian expression system at 10 uM by Kinomescan method relative to control
[16] = target: Tyrosine-protein kinase ABL1 (Homo sapiens) (UniProt P00519); experiment: Inhibition of wild-type human non-phosphorylated ABL1 (S229 to K512 residues) expressed in mammalian expression system at 10 uM by Kinomescan method relative to control
[17] = target: Activin receptor type-1B (Homo sapiens) (UniProt P36896); experiment: Inhibition of wild-type human ACVR1B (S187 to I505 residues) expressed in bacterial expression system at 10 uM by Kinomescan method relative to control
[18] = target: Calcium/calmodulin-dependent protein kinase kinase 1 (Homo sapiens) (UniProt Q8N5S9); experiment: Inhibition of wild-type human partial length CAMKK1 (R65 to E414 residues) expressed in bacterial expression system at 10 uM by Kinomescan method relative to control
[19] = target: Ephrin type-B receptor 3 (Homo sapiens) (UniProt P54753); experiment: Inhibition of wild-type human partial length EPHB3 (Q599 to T928 residues) expressed in bacterial expression system at 10 uM by Kinomescan method relative to control
Ephrin type-B receptor 3 (Homo sapiens), sequence (P54753 whole entry, the tested form may be a part): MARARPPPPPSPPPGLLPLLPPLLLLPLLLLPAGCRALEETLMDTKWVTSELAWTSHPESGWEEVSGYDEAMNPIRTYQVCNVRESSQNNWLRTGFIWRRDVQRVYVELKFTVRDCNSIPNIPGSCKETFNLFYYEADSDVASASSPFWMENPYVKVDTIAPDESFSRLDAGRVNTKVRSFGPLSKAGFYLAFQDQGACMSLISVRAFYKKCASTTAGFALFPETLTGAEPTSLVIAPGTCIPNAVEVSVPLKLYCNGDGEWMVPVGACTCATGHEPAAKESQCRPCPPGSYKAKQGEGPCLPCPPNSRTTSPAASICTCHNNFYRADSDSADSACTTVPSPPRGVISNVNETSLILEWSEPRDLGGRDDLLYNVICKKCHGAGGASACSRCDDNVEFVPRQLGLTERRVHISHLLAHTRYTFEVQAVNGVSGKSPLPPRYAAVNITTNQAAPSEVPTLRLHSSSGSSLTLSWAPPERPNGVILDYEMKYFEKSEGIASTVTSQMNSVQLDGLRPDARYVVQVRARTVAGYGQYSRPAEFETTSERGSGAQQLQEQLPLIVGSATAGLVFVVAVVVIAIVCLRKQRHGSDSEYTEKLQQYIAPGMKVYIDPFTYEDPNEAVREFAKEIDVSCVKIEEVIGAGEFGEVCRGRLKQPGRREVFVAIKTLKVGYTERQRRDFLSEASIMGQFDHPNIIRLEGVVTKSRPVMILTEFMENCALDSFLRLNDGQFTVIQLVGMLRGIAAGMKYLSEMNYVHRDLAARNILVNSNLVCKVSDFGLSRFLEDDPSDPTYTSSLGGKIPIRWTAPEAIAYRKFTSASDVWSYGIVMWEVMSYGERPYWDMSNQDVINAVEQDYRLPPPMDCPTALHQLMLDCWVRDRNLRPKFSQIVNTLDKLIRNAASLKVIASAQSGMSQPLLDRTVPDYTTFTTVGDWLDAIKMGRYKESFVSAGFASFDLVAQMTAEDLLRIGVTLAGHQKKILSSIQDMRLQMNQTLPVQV

[20] = target: MAP/microtubule affinity-regulating kinase 4 (Homo sapiens) (UniProt Q96L34); experiment: Inhibition of wild-type human partial length MARK4 (K29 to G340 residues) expressed in bacterial expression system at 10 uM by Kinomescan method relative to control
[21] = target: Maternal embryonic leucine zipper kinase (Homo sapiens) (UniProt Q14680); experiment: Inhibition of wild-type human full length MELK (M1 to V651 residues) expressed in bacterial expression system at 10 uM by Kinomescan method relative to control
[22] = target: Calcium-dependent protein kinase 1 (Plasmodium falciparum) (UniProt P62344); experiment: Inhibition of wild-type Plasmodium falciparum full length CDPK1 (M1 to S524 residues) expressed in mammalian expression system at 10 uM by Kinomescan method relative to control
[23] = target: Ribosomal protein S6 kinase alpha-1 (Homo sapiens) (UniProt Q15418); experiment: Inhibition of wild-type human partial length N-terminal RSK1 Kinase domain 1 (M1 to E388 residues) expressed in bacterial expression system at 10 uM by Kinomescan method relative to control
[24] = target: Uncharacterized serine/threonine-protein kinase SBK3 (Homo sapiens) (UniProt P0C264); experiment: Inhibition of wild-type human partial length SgK110 (L22 to R329 residues) expressed in bacterial expression system at 10 uM by Kinomescan method relative to control
[25] = target: NUAK family SNF1-like kinase 2 (Homo sapiens) (UniProt Q9H093); experiment: Inhibition of wild-type human partial length SNARK (P22 to A333 residues) expressed in mammalian expression system at 10 uM by Kinomescan method relative to control
[26] = target: Serine/threonine-protein kinase ULK2 (Homo sapiens) (UniProt Q8IYT8); experiment: Inhibition of wild-type human partial length ULK2 (M1 to S301 residues) expressed in mammalian expression system at 10 uM by Kinomescan method relative to control

O=C(Nc1cccc([C@@H]2CN(c3ncnc4[nH]ccc34)CCN2CCO)c1)Nc1c(F)cccc1N1CCCC1
inhibition [1]: 43% | inhibition [2]: 100% | inhibition [3]: 100% | inhibition [4]: 82% | inhibition [5]: 100% | inhibition [6]: 97% | inhibition [7]: 100% | inhibition [8]: 91% | inhibition [9]: 100% | inhibition [10]: 98% | inhibition [11]: 92% | inhibition [12]: 100% | inhibition [13]: 100%

O=C(Nc1cccc([C@H]2CCCN(c3ncnc4[nH]ccc34)C2)c1)Nc1ccccc1N1CCCC1
inhibition [14]: 89% | inhibition [15]: 71% | inhibition [16]: 25% | inhibition [17]: 100% | inhibition [18]: 82% | inhibition [19]: 100% | inhibition [20]: 87% | inhibition [21]: 36% | inhibition [22]: 9.9% | inhibition [23]: 42% | inhibition [24]: 100% | inhibition [25]: 6.6% | inhibition [26]: 50%

Source: ChEMBL document CHEMBL4387741, “Optimization of novel reversible Bruton's tyrosine kinase inhibitors identified using Tethering-fragment-based screens” (Bioorg Med Chem, 2019)
